The test system of one assay is HIV-1IIIB. Description: HIV-1 antiviral assay in CEM-SS cells (MTS readout). It counts as cell-based.
The next assay concerns HCMV strain AD169. Description: HCMV plaque formation assay in MRC-5 cells.
In another assay the test system is A549 cells. Description: Apoptosis prevention assay (C2 ceramide, Annexin-5). Format: cell-based, human. To be noted: 10 micrograms per ml, 30 min pretreatment.
A further assay has as its system IL-2 spleen cells. Description: Th1/Th2 cytokine profiling assay, IL-2. The settings on record: 10 micrograms per ml; Ovalbumin restimulation; 72 hours. Format: cell-based, Balb/c mice.
A further assay concerns RAW 264.7 cells. Description: Phagocytosis assay (Fluorescein-labeled Escherichia coli, flow cytometry). The settings on record: 10 micrograms per ml. For orientation: Flow cytometry measures light scatter and fluorescence of single cells or particles in a stream.
The test system of assay [1] is hepatitis B virus (HBV) ayw strain. Description: HBV experimental assay system (secreted HBV DNA, TaqMan PCR). To be noted: 10 micrograms per ml; HepG2-2.2.15 cells; six days. Format: cell-based. On the technique in general: In qPCR the cycle at which signal appears reflects the starting amount.
Another assay has as its system IL-4 spleen cells. Description: Th1/Th2 cytokine profiling assay, IL-4. Format: cell-based, Balb/c mice. The settings on record: 10 micrograms per ml; Ovalbumin restimulation; 72 hours.
In the next assay the test system is TNF-a spleen cells. Description: Th1/Th2 cytokine profiling assay, TNF-a. Format: cell-based, Balb/c mice. The settings on record: 10 micrograms per ml; Ovalbumin restimulation; 72 hours.
The test system of another assay is IL-5 spleen cells. Description: Th1/Th2 cytokine profiling assay, IL-5. It counts as cell-based, Balb/c mice. To be noted: 10 micrograms per ml; Ovalbumin restimulation; 72 hours.
The subject of another assay is IFNγ spleen cells. Description: Th1/Th2 cytokine profiling assay, IFNγ. It counts as cell-based, Balb/c mice. The settings on record: 10 micrograms per ml; Ovalbumin restimulation; 72 hours.

No end group written: not given here.

Procedure for A549 cells: Human A549 cells (carcinomic human alveolar basal epithelial cells) were utilized in the experiments employing the Annexin-5 apoptosis assay. […] A549 cells were pretreated for 30 min with test peptides—10 micrograms per ml—followed by the exposure to C2 ceramide.
Source text for IFNγ spleen cells: (§1) The Balb/c mice (originated in 1923, it is a popular strain and is used in many different research disciplines. Also classified as an inbred from the production of 20 or more successive brother-sister matings, the Balb/c mouse is albino and small in size) were immunized on Days 1, 15, and 29 with Ovalbumin (Ovalbumin is the main protein found in egg white, commonly used to stimulate an immunological reaction in test animals) in PBS (5 micrograms/injection). On day 50, spleens of the mice were harvested (3 weeks after last boost with Ovalbumin). […] Thereafter, additional Ovalbumin was added to the cells at 10 micrograms/ml for in vitro restimulation of the cells. 72 hours later, cell supernatants were harvested and assayed using the Becton Dickinson Mouse Th1/Th2 Cytokine CBA Kit.
Source text for IL-2 spleen cells: as §1
Source text for IL-4 spleen cells: as §1
Source text for IL-5 spleen cells: as §1
Source text for TNF-a spleen cells: as §1

On to `Cc1cn([C@H]2C[C@H](N=[N+]=[N-])[C@@H](CO)O2)c(=O)[nH]c1=O` [AZT], for which the “antiviral activity of positive control compounds (HIV-1)” value with HIV-1IIIB is “expected levels of antiviral activity”.

As to `Nc1nc(O)c2ncn(COC(CO)CO)c2n1` [Ganciclovir], the “antiviral activity of positive control compound (HCMV)” value in the assay with HCMV strain AD169 is listed as “expected levels of antiviral activity”.

For `CC(C)(C)NC(=O)[C@@H]1CN(Cc2cccnc2)CCN1C[C@@H](O)C[C@@H](Cc1ccccc1)C(=O)N[C@H]1c2ccccc2C[C@H]1O` [indinavir], the “antiviral activity of positive control compounds (HIV-1)” value in the assay on HIV-1IIIB is “expected levels of antiviral activity”.

As for “Arg-Pro-Lys-Pro-Gln-Gln-Phe-Phe-Gly-Leu-Met-NH2 (RPKPQQFFGLM-NH2) [Peptide 1]”, in the assay with A549 cells, the “prevention (reduction) of ceramide-induced apoptosis on human lung cells” value is on record as 10.9%. Further, in the assay on IL-2 spleen cells, the “IL-2 spleen cells (% of control)” value is recorded as 113.6 % of control. In the assay on RAW 264.7 cells, the “increase of the phagocytic activity of murine macrophages” value came out at 28.6%. For the same compound, the “inhibition of HBV replication as compared to the virus control infection” value in [1] was determined as 30.2%. The “IL-4 spleen cells; TH2 response (% of control)” value in the assay on IL-4 spleen cells was 106.2 % of control. Further, the “TNF-a spleen cells; TH1 response (% of control)” value in the assay on TNF-a spleen cells is on record as 101.0 % of control. In addition, the “IL-5 spleen cells; TH2 response (% of control)” value in the assay with IL-5 spleen cells was 64.0 % of control. Moreover, in the assay with IFNγ spleen cells, the “IFNγ spleen cells; TH1 response (% of control)” value was 136.4 % of control.

Pyr-His-Pro-NH2 [Peptide 2]: the “prevention (reduction) of ceramide-induced apoptosis on human lung cells” value in the assay on A549 cells amounted to 17.2%. For the same compound, the “IL-2 spleen cells (% of control)” value in the assay with IL-2 spleen cells was 0.0 % of control. Moreover, the “increase of the phagocytic activity of murine macrophages” value in the assay on RAW 264.7 cells is reported as 31.4%. Further, the “inhibition of HBV replication as compared to the virus control infection” value in assay [1] is “no effect”. Moreover, the “IL-4 spleen cells; TH2 response (% of control)” value with IL-4 spleen cells is listed as 106.2 % of control. Also, the “TNF-a spleen cells; TH1 response (% of control)” value with TNF-a spleen cells is 110.7 % of control. Further, the “IL-5 spleen cells; TH2 response (% of control)” value with IL-5 spleen cells was 67.5 % of control. The “IFNγ spleen cells; TH1 response (% of control)” value in the assay with IFNγ spleen cells is listed as 102.0 % of control.

The record behind these values is patent US20100190722A1, “SUBSTANCE P AND THYROTROPIN RELEASING HORMONE FOR THERAPEUTIC APPLICATIONS” (priority 2007, published 2010).
